Assay results from patent US5242783A, “Photographic material and process” (Eastman Kodak Company, priority 1992, dated 1993).

Test: Deblocking of ester in pH 10.0 carbonate buffer with hydroxylamine (A+C), reaction half-life and rate enhancement
Format: physicochemical
Conditions: for Ratio of the A+B half-life to the A+C half-life (rate enhancement): pH 10.0, 25° C.; for reactivity with hydroxylamine vs comparisons: from Table I
Description: Model studies were conducted on esters E-1 through E-6 to determine the possible rate enhancement which could be attained by using a dinucleophile rather than a mononucleophile to promote the removal from a phenolic moiety of a blocking group of this invention. Aqueous solutions A, B, and C, each containing 50% by volume of acetonitrile were prepared as follows (a separate solution A for each ester):
Solution A: 2.5 × 10^-4 M ester (or 2.5 × 10^-5 M E-
Solution B: 25% by volume carbonate buffer
(pH 10.0, ionic strength 0.75);
Solution C: Solution B with added 0.05M
Then equal volumes of A and B (or A and C) were mixed at 25° C. to give a pH 10.0 solution and the reaction was followed by spectrophotometric measurements of the phenol (290 nm) or p-nitrophenol (402 nm) produced with time. In each case a reaction half-life (t1/2) was calculated from the equation t/1/2 =1n(2)/k, where 1n(2) is the natural logarithm of 2 and k is the pseudo first-order rate constant calculated for the reaction. Smaller half-lives thus indicate more rapid reactions. The A+B combination provides an alkaline solution in which the main reactant is hydroxide ion (a mononucleophile) while in the A.C combination the active reactant is hydroxylamine (a dinucleophile). A ratio of the A+B half-life to the A+C half-life provides a measure of rate enhancement due to participation of hydroxylamine in the deblocking reaction.

Structure (SMILES)	Ratio of the A+B half-life to the A+C half-life (rate enhancement)	reactivity with hydroxylamine vs comparisons
CC1(C(=O)Oc2ccc([N+](=O)[O-])cc2)CN(C(=O)OCc2ccc([N+](=O)[O-])cc2)CCC1=O (centres unmarked) [Example E-3]	3.6 × 10^4	
CC(=O)CC(C)(C)C(=O)Oc1ccccc1 [Example E-6, reference compound]	1.7 × 10^2	
CC(=O)C(C)(C)C(=O)Oc1ccccc1 [Example E-5, reference compound]	3.7 × 10^4	

Second part, led by results:

Ratio of the A+B half-life to the A+C half-life (rate enhancement)	Structure (SMILES)	reactivity with hydroxylamine vs comparisons
2.9 × 10^4	COc1ccc(C(=O)N2CCC(=O)C(C)(C(=O)Oc3ccc([N+](=O)[O-])cc3)C2)cc1 (centres unmarked) [Example E-2]	much more reactive with the dinucleophile hydroxylamine than are the comparisons
3.8 × 10^4	CN(C(=O)N1CCC(=O)C(C)(C(=O)Oc2ccc([N+](=O)[O-])cc2)C1)c1ccccc1 (centres unmarked) [Example E-1]	much more reactive with the dinucleophile hydroxylamine than are the comparisons
2.3 × 10^5	CC1(C(=O)Oc2ccc([N+](=O)[O-])cc2)CCCCC1=O (centres unmarked) [Example E-4, reference compound]	
